In publication PMC11951083, “Highly Specific Miniaturized Fluorescent Monoacylglycerol Lipase Probes Enable Translational Research” (Journal of the American Chemical Society, 2025):

Columns and labels:
MAGL-Nluc fusion protein = experiment: Competition nanoBRET assay in live HEK293 cells with probe 4a as tracer; format: cell-based; conditions: tracer 4a (100 nM), read-out: cellular IC50
Experimental: In vitro MAGL Inhibition Assay
Compounds were profiled for MAGL inhibitory activity by determining the enzymatic activity by following the hydrolysis of the natural substrate 2-arachidonoylglycerol (2-AG), resulting in arachidonic acid, which can be followed by mass spectrometry. The 2-AG assay was carried out in 384 well assay plates (PP, Greiner Cat# 784201) in a total volume of 20 µL. Compound dilutions were made in 100% DMSO (VWR Chemicals 23500.297) in a polypropylene plate in 3-fold dilution steps to give a final concentration range in the assay from 12.5 µM to 0.8 pM. […] The activity of the compounds was calculated based on the ratio of intensities [arachidonic acid / d8-arachidonic acid]. […]
A HEK293A stable cell line expressing NanoLuc_MAGL was established at Roche and assigned as HEK293A_NanoLuc_MAGL clone #43. […] The introduction of competing compounds results in a dose -dependent decrease in NanoBRET™ energy transfer, which allows quantification of the intracellular affinity of the target protein for the test compound.
HEK293A_NanoLuc_MAGL clone #43 cells were cultured in DMEM (Gibco 31966) with 10% FBS and 800 ug/ml G418. […] After 2 hours of incubation, Nanoluciferase substrates and extracellular inhibitors were added following the manufacturer's protocol (Promega, #N2520), and the NanoBRET signaling were quantified with the Paradigm (Molecular Devices).

MAGL [1] = biological target: T1, MAGL (Homo sapiens, UniProt Q99685); experiment: ABPP target occupancy in patient-derived PBMCs; format: cell-based; set-up: native, human patient-derived peripheral blood monocytes (PBMCs); endogenous in cells; host or cells: human PBMCs from buffy coats
T1 sequence (Q99685 1-303): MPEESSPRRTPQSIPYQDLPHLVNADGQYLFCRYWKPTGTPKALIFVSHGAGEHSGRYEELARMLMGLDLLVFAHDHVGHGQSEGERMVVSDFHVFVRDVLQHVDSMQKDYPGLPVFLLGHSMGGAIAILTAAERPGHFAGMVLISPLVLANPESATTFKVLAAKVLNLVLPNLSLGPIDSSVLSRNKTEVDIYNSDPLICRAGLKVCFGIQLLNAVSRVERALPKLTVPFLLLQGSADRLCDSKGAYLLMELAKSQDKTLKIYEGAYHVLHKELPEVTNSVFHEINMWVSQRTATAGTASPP
Experimental: minutes at RT. Subsequently, 0.5 µL MB064 (40x stock in DMSO) was added to the proteome sample, vortexed briefly, and incubated for 10 minutes at RT, after which 0.5 µL FP-Bodipy-FL (40x stock in DMSO) was added, vortexed briefly and incubated for 10 minutes at RT. The final volume was 20 - 20.5 µL (5 - 7.5% DMSO). The reaction was quenched by the addition of 7.5 µL of 4*Laemmli-buffer (final concentrations: 60 mM Tris (pH 6.8), 2% (w/v) SDS, 10% (v/v) glycerol, 1.25% (v/v) β-mercaptoethanol, 0.01% (v/v) bromophenol blue). 10 µL (14 µg protein) of the quenched reaction mixture was resolved on 10% acrylamide SDS-PAGE (180 V, 75 min). Fluorescence was measured using a Biorad ChemiDoc MP system (fluorescence channels Cy2, Cy3, Cy5). Gels were then stained using coomassie staining and imaged for protein loading control. Labeling of the respective proteins via MB064 and FP-BODIPY was visualized in two separate channels. […]
PBMCs were thawed, washed with 1 x PBS and equal amounts of cells were exposed to DMSO (D2650; Sigma-Aldrich) or MAGL inhibitor PF (PF-06795071) in DMSO for 30 min at room temperature with concentrations ranging from 1 nM to 1000 nM. […] Samples were then separated by SDS-PAGE and bands were detected ChemiDoc Imager (Bio-Rad Laboratories). […] Gels were imaged and protein bands were quantified using Image Lab software (Bio-Rad Laboratories).

MAGL [2] = biological target: T1, MAGL; experiment: Competitive FP binding assay with probe 5 as tracer; conditions: 5 (20 nM), hMAGL (50 nM), irreversible inhibitors time-dependent
MAGL [3] = biological target: T1, MAGL; set-up: method as in earlier work; conditions: Table S2, literature compounds; ref (1), (6)-(12) as indicated per compound; cited from earlier work

In the case of `O=C(O[C@H](CO)C(F)(F)F)N1C[C@@H]2C(c3ccn(-c4ccc(F)cc4)n3)[C@@H]2C1` (some centres unmarked) [PF-06795071], the IC50 (MAGL-Nluc fusion protein) is reported as 1600 nM, the “loss of MAGL activity” value (MAGL [1]; 1 nM) is reported as 40% and the “loss of MAGL activity” value (MAGL [1]; 10 nM) is reported as 93%. For the same molecule, the Ki (MAGL [2]) was 12.8 ± 3.9 nM and the IC50 (MAGL [3]) was 3 nM.
